Here are results for 23 compounds from US20230271954A1 (Gossamer Bio Services, Inc., priority 2020, published 2023).

pIC50: −log10 of the molar value. Where only a bound is given, the exact number is not on record here.

One assay has as its target T1, DGKζ (Homo sapiens, UniProt Q13574).
T1 construct: purchased Carna 12-110
Description: DGKζ biochemical assay (ADP-Glo). Conditions: read-out: DGK ζ IC50. How it is done:
(§1) Compounds of the present invention were prepared into 10 mM DMSO solution and 10 nL of stock was transferred into 384 plates (Optiplate 384 plate) using Echo550. DMSO was used as high control, and ATP substrate buffer was used as a low control. A 1× enzyme assay buffer was prepared (Hepes, pH 7.0 25 mM, BSA 0.05%, Triton-X100 0.002%, CaCl2) 1 μM, MgCl2 10 mM, DTT 2 mM). […] OAG (1-oleoyl-2-acetyl-sn-glycerol, 25 mg/ml, Avanti 8001000) and PS (10 mg/ml, Avanti 840032P) were mixed at the ratio of 1:2. A 1× substrate solution was prepared with 1× assay buffer by 100-fold dilution. The substrate solution was sonicated on ice for 1 min. The pure ATP was added to the substrate solution (DGKα:400 μM). 5 μL of the enzyme solution were added to the 384 well plate, and the plate was spun for 1 min at 1000 rpm and incubated for 30 mins at RT. 5 μL of 1× substrate solution were added to the 384 well plate, the plate was spun and then incubated for 45 mins at RT. 10 μL ADP-Glo […] was added to stop the assay. After 60 mins at RT, 20 μL ADP-Glo Detection buffer was added as the final step. Plate was read after 45 min incubation at RT.
(§2) Data analysis was performed by calculating the […] using following the formula:
(§3) [formula] • High control (Hc): DMSO/DGKα(DGKζ)/Substrate/ATP/ADP-Glo • Low Control (Lc): ATP/ADP-Glo
A general note: ADP-Glo first removes unused ATP, then detects ADP through luciferase.

Another assay concerns the target DGKα (Homo sapiens, UniProt P23743). Description: DGKα biochemical assay (ADP-Glo). Conditions: read-out: DGK α IC50. How it is done: as §1, §2, §3

The term pIC50 denotes −log10 of the IC50, conventionally taken in molar units.

Chain of DGKα (P23743 whole entry): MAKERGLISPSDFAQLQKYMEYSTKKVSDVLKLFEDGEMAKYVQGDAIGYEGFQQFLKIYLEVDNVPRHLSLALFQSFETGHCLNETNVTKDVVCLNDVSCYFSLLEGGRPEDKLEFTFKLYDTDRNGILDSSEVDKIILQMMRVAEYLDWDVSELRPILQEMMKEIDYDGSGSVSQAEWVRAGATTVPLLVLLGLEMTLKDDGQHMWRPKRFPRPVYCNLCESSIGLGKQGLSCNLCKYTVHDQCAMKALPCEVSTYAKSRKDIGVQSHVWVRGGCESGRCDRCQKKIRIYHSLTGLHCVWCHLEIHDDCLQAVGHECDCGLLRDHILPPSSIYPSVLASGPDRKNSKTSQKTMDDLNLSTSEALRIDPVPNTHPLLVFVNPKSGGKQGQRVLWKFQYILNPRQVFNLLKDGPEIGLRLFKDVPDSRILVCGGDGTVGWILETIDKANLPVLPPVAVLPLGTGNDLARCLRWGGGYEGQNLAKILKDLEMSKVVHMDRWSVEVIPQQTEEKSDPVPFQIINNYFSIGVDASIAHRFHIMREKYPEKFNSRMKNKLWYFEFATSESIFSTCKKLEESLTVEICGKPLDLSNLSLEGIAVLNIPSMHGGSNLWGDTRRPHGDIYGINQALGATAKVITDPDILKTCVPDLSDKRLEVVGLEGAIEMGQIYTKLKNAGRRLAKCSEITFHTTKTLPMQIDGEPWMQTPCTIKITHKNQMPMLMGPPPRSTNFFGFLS
T1 sequence (Q13574 1-929 isoform Q13574-4): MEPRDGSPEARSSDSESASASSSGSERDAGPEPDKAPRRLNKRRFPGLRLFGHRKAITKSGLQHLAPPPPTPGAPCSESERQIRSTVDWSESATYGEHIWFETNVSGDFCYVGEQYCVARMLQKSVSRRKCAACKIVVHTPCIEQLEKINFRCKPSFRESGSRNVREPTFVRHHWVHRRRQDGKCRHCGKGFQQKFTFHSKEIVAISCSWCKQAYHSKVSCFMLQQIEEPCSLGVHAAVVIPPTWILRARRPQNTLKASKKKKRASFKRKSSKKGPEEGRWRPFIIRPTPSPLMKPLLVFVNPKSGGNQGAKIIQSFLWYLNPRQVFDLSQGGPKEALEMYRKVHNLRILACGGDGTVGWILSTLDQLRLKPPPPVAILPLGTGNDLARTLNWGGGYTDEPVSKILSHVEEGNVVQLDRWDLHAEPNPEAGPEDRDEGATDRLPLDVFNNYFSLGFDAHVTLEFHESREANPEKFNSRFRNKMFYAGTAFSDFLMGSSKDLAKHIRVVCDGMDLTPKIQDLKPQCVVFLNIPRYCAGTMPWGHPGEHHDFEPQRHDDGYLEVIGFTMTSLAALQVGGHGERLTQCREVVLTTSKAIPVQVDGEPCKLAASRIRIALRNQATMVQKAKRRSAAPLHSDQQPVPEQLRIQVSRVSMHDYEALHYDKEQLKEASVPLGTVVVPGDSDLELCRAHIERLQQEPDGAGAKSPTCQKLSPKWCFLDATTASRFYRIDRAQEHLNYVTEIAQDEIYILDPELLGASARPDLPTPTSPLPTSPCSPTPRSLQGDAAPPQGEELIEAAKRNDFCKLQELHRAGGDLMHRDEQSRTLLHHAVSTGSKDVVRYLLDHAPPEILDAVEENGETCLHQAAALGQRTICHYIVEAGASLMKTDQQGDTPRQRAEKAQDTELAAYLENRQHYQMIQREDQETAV

`Cn1c(=O)cc(N(C)[C@H]2CC[C@@H](N(CC3COCCO3)c3ccc4c(c3)OCCO4)CC2)c2nc(C#N)ccc21` (stereo partly drawn) [Example 183, cis-8-((4-(((1,4-dioxan-2-yl)methyl)(2,3-dihydrobenzo[b][1,4]dioxin-6-yl)amino)cyclohexyl) (methyl)amino)-5-methyl-6-oxo-5,6-dihydro-1,5-naphthyridine-2-carbonitrile]: the negative logarithm of the IC50 (pIC50) at DGKζ and on DGKα was 6.00 to 7.00 in each case.

As to `COc1cc(F)ccc1N(C1CC1)[C@H]1CC[C@@H](N(C)c2c(C#N)c(=O)n(C)c3ccc(Cl)nc23)CC1` [Example 3H, cis-6-chloro-4-((4-(cyclopropyl(4-fluoro-2-methoxyphenyl)amino)cyclohexyl)(methyl)amino)-1-methyl-2-oxo-1,2-dihydro-1,5-naphthyridine-3-carbonitrile], the pIC50 on DGKζ was 7.00 to 8.00; at DGKα, 6.00 to 7.00.

Take `Cn1c(=O)c(C#N)c(N(C)[C@H]2CC[C@H](N(c3ccc(F)cc3)C3CC3)CC2)c2nc(Cl)ccc21` [Example 3F, trans-6-chloro-4-((4-(cyclopropyl(4-fluorophenyl)amino)cyclohexyl) (methyl)amino)-1-methyl-2-oxo-1,2-dihydro-1,5-naphthyridine-3-carbonitrile]: the pIC50 on DGKζ is 6.00 to 7.00; on DGKα, 7.00 to 8.00.

As to `Cn1c(=O)c([N+](=O)[O-])c(N2CCC(N(CC3CC3)c3ccccc3)CC2)c2nc(C#N)ccc21` [Example 1B, 8-(4-((Cyclopropylmethyl)(phenyl)amino)piperidin-1-yl)-5-methyl-7-nitro-6-oxo-5,6-dihydro-1,5-naphthyridine-2-carbonitrile], the negative-log IC50 (pIC50) at DGKζ is 6.00 to 7.00; on DGKα, 7.00 to 8.00.

Take `Cn1c(=O)c(C#N)c(N(C)[C@H]2CC[C@H](N(CC3CCC3)c3cccc4c3OCO4)CC2)c2nc(C#N)ccc21` [Example 112, trans-8-((-4-(benzo[d][1,3]dioxol-4-yl(cyclobutylmethyl)amino)cyclohexyl)(methyl)amino)-5-methyl-6-oxo-5,6-dihydro-1,5-naphthyridine-2,7-dicarbonitrile]: the values for the negative-log IC50 (pIC50) at DGKζ and on DGKα were 6.00 to 7.00 and 7.00 to 8.00, respectively.

With `CN1Cc2ccc(N(CC3CC3)[C@H]3CC[C@@H](N(C)c4c(C#N)c(=O)n(C)c5ccc(C#N)nc45)CC3)cc2C1=O` [Example 204, cis-8-((-4-((cyclopropylmethyl)(2-methyl-3-oxoisoindolin-5-yl)amino)cyclohexyl)(methyl)amino)-5-methyl-6-oxo-5,6-dihydro-1,5-naphthyridine-2,7-dicarbonitrile], the pIC50 at DGKζ and on DGKα was not above 6.00 in each case.

Turning to `COc1cc(F)ccc1N(CC1CC1)[C@H]1CC[C@@H](N(C)c2cc(=O)n(C)c3ccc(C#N)nc23)CC1` [Example 3Z, cis-8-[[4-(N-cyclopropylmethyl-N-4-fluoro-2-methoxyphenyl-anilino)cyclohexyl]-methyl-amino]-5-methyl-6-oxo-5,6-dihydro-1,5-naphthyridine-2-carbonitrile], the pIC50 at DGKζ and at DGKα was 6.00 to 7.00 in each case.

Consider `Cn1c(=O)c([N+](=O)[O-])c(N2CCC(N(CC3COC3)c3ccccc3)CC2)c2nc(C#N)ccc21` [Example 1C, 5-Methyl-7-nitro-8-(4-((oxetan-3-ylmethyl)(phenyl)amino)piperidin-1-yl)-6-oxo-5,6-dihydro-1,5-naphthyridine-2-carbonitrile], for which the negative logarithm of the IC50 (pIC50) on DGKζ and on DGKα was not above 6.00 each time.

Turning to `CN(c1cc(=O)n(C)c2ccc(C#N)nc12)C1CCC(N(CC2CCC2)c2ccc(CN3CCOCC3)cc2)CC1` (single isomer, unassigned) [Example 189, (cis or trans)-8-((4-((cyclobutylmethyl)(4-(morpholinomethyl)phenyl)amino)cyclohexyl) (methyl)amino)-5-methyl-6-oxo-5,6-dihydro-1,5-naphthyridine-2-carbonitrile], the pIC50 at DGKζ and at DGKα was not above 6.00 each time.

Regarding `Cn1c(=O)cc(N(C)[C@H]2CC[C@H](N(CC3CCC3)c3ccc(F)cc3)CC2)c2nc(C#N)ccc21` [Example 44, trans-8-((-4-((cyclobutylmethyl)(4-fluorophenyl)amino)cyclohexyl)(methyl)amino)-5-methyl-6-oxo-5,6-dihydro-1,5-naphthyridine-2-carbonitrile], the negative-log IC50 (pIC50) on DGKζ is not above 6.00; at DGKα, 6.00 to 7.00.

As for `Cn1c(=O)c(C#N)c(N(C)[C@H]2CC[C@H](N(CC3CC3)c3cccnc3)CC2)c2nc(C#N)ccc21` [Example 103, trans-8-((4-((cyclopropylmethyl)(pyridin-3-yl)amino)cyclohexyl)(methyl)amino)-5-methyl-6-oxo-5,6-dihydro-1,5-naphthyridine-2,7-dicarbonitrile], the negative logarithm of the IC50 (pIC50) at DGKζ and at DGKα was not above 6.00 throughout.

Consider `Cn1c(=O)c(C#N)c(N(C)[C@H]2CC[C@@H](N(CC3CCC3)c3ccc(F)cc3)CC2)c2nc(C#N)ccc21` [Example 42, cis-8-((-4-((cyclobutylmethyl)(4-fluorophenyl)amino)cyclohexyl)(methyl)amino)-5-methyl-6-oxo-5,6-dihydro-1,5-naphthyridine-2,7-dicarbonitrile], for which the results for the pIC50 on DGKζ and at DGKα were 6.00 to 7.00 and more than 8.00, respectively.

For the compound `Cc1ccc(N(CC2CCC2)[C@H]2CC[C@@H](N(C)c3c(C#N)c(=O)n(C)c4ccc(C#N)nc34)CC2)cc1` [Example 99], the pIC50 on DGKζ was 7.00 to 8.00; at DGKα it was more than 8.00.

In the case of `Cc1cc(F)ccc1N(CC1CCCCO1)[C@H]1CC[C@H](N(C)c2c(C#N)c(=O)n(C)c3ccc(C#N)nc23)CC1` (stereo partly drawn) [Example 136, trans-8-((-4-((4-fluoro-2-methylphenyl)((tetrahydro-2H-pyran-2-yl)methyl)amino)cyclohexyl)(methyl)amino)-5-methyl-6-oxo-5,6-dihydro-1,5-naphthyridine-2,7-dicarbonitrile], the pIC50 at DGKζ is 7.00 to 8.00; on DGKα, 6.00 to 7.00.

As for `Cn1c(=O)c(C#N)c(N(C)[C@H]2CC[C@@H](N(CC3CCCOC3)c3ccc(F)cc3)CC2)c2nc(C#N)ccc21` (relative stereo) [Example 57, cis-8-((4-((4-fluorophenyl)((tetrahydro-2H-pyran-3-yl)methyl)amino)cyclohexyl)(methyl)amino)-5-methyl-6-oxo-5,6-dihydro-1,5-naphthyridine-2,7-dicarbonitrile], the negative logarithm of the IC50 (pIC50) on DGKζ was 7.00 to 8.00; on DGKα, more than 8.00.

As for `COc1cc(N(CC2CC2)[C@H]2CC[C@@H](N(C)c3c(C#N)c(=O)n(C)c4ccc(C#N)nc34)CC2)ccc1F` [Example 33, cis-8-((4-((cyclopropylmethyl)(4-fluoro-3-methoxyphenyl)amino)cyclohexyl)(methyl)amino)-5-methyl-6-oxo-5,6-dihydro-1,5-naphthyridine-2,7-dicarbonitrile], the pIC50 at DGKζ and at DGKα was 6.00 to 7.00 each time.

With `Cc1cc(N(CC2CCC2)[C@H]2CC[C@@H](N(C)c3cc(=O)n(C)c4ccc(C#N)nc34)CC2)ccc1F` [Example 92], the negative logarithm of the IC50 (pIC50) was 6.00 to 7.00 at DGKζ and 7.00 to 8.00 on DGKα.

Regarding `Cn1c(=O)cc(N(C)[C@H]2CC[C@H](N(CC3CC3)c3ccc(F)c(OC(F)F)c3)CC2)c2nc(C#N)ccc21` [Example 80], the negative-log IC50 (pIC50) at DGKζ and on DGKα was not above 6.00 each time.

With `Cn1c(=O)cc(N(C)[C@H]2CC[C@H](N(CC3CC3)c3ccc(F)cn3)CC2)c2nc(C#N)ccc21` [Example 3AA], the figures for the negative logarithm of the IC50 (pIC50) on DGKζ and at DGKα were not above 6.00 and 6.00 to 7.00, respectively.

With `Cn1c(=O)cc(N(C)[C@H]2CC[C@@H](N(CC3COCCO3)c3ccc(F)cc3)CC2)c2nc(C#N)ccc21` (stereo partly drawn) [Example 163, cis-8-((-4-(((1,4-dioxan-2-yl)methyl)(4-fluorophenyl)amino)cyclohexyl)(methyl)amino)-5-methyl-6-oxo-5,6-dihydro-1,5-naphthyridine-2-carbonitrile], the values for the negative-log IC50 (pIC50) on DGKζ and on DGKα were 6.00 to 7.00 and more than 8.00, respectively.

`Cc1ccccc1N(CC1CC1)[C@H]1CC[C@H](N(C)c2c(C#N)c(=O)n(C)c3ccc(C#N)nc23)CC1` [Example 71, trans-8-((4-((cyclopropylmethyl)(o-tolyl)amino)cyclohexyl)(methyl)amino)-5-methyl-6-oxo-5,6-dihydro-1,5-naphthyridine-2,7-dicarbonitrile]: the pIC50 at DGKζ was 7.00 to 8.00; on DGKα, not above 6.00.

Consider `COc1cc(N(CC2CC2)[C@H]2CC[C@H](N(C)c3c(C#N)c(=O)n(C)c4ccc(C#N)nc34)CC2)ccc1F` [Example 34, trans-8-((4-((cyclopropylmethyl)(4-fluoro-3-methoxyphenyl)amino)cyclohexyl)(methyl)amino)-5-methyl-6-oxo-5,6-dihydro-1,5-naphthyridine-2,7-dicarbonitrile], for which the pIC50 is not above 6.00 at DGKζ and 6.00 to 7.00 at DGKα.

Take `COc1cc(N(CC2CC2)[C@H]2CC[C@H](N(C)c3c(C#N)c(=O)n(C)c4ccc(C#N)nc34)CC2)cc(F)c1F` [Example 77]: the pIC50 is 6.00 to 7.00 at DGKζ and not above 6.00 at DGKα.
